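Method: 48-hour compound exposure of cells in 96-well plates, five concentrations, linear interpolation of endpoints. TGI denotes the concentration required for complete inhibition of growth.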
Key:
Test in all cases: NCI-60 cell line screen, 48 h
SR leukemia = test system: SR leukemia
HOP-62 NSCLC = test system: HOP-62 NSCLC
SN12C renal = test system: SN12C renal
786-0 renal = test system: 786-0 renal
NCI-H226 lung = test system: NCI-H226 lung
OVCAR-8 ovarian = test system: OVCAR-8 ovarian
LOX IMVI melanoma = test system: LOX IMVI melanoma
BT-549 breast = test system: BT-549 breast
ACHN renal = test system: ACHN renal
UO-31 renal = test system: UO-31 renal
A498 renal = test system: A498 renal
DU-145 prostate = test system: DU-145 prostate
CAKI-1 renal = test system: CAKI-1 renal
M14 melanoma = test system: M14 melanoma
RPMI-8226 leukemia = test system: RPMI-8226 leukemia
MOLT-4 leukemia = test system: MOLT-4 leukemia
NCI-H460 lung = test system: NCI-H460 lung
KM12 colon = test system: KM12 colon
NCI/ADR-RES ovarian = test system: NCI/ADR-RES ovarian
SF-539 CNS = test system: SF-539 CNS
OVCAR-4 ovarian = test system: OVCAR-4 ovarian
HCT-15 colon = test system: HCT-15 colon
MCF7 breast = test system: MCF7 breast
NCI-H522 lung = test system: NCI-H522 lung
HT29 colon = test system: HT29 colon
OVCAR-5 ovarian = test system: OVCAR-5 ovarian
MDA-N = test system: MDA-N
UACC-257 melanoma = test system: UACC-257 melanoma
SK-MEL-2 melanoma = test system: SK-MEL-2 melanoma
COLO 205 colon = test system: COLO 205 colon
HOP-92 NSCLC = test system: HOP-92 NSCLC
HL-60(TB) leukemia = test system: HL-60(TB) leukemia
EKVX NSCLC = test system: EKVX NSCLC
MDA-MB-231 breast = test system: MDA-MB-231 breast
SK-MEL-5 melanoma = test system: SK-MEL-5 melanoma
SF-295 CNS = test system: SF-295 CNS
A549 NSCLC = test system: A549 NSCLC
U251 CNS = test system: U251 CNS
SNB-19 CNS = test system: SNB-19 CNS
TK-10 renal = test system: TK-10 renal
SNB-75 CNS = test system: SNB-75 CNS
K-562 leukemia = test system: K-562 leukemia
SW-620 colon = test system: SW-620 colon
HCT-116 colon = test system: HCT-116 colon
PC-3 prostate = test system: PC-3 prostate
T-47D breast = test system: T-47D breast
MDA-MB-435 = test system: MDA-MB-435
SK-OV-3 ovarian = test system: SK-OV-3 ovarian
OVCAR-3 ovarian = test system: OVCAR-3 ovarian
IGROV1 ovarian = test system: IGROV1 ovarian
SK-MEL-28 melanoma = test system: SK-MEL-28 melanoma
UACC-62 melanoma = test system: UACC-62 melanoma
HCC-2998 colon = test system: HCC-2998 colon
SF-268 CNS = test system: SF-268 CNS
HS 578T breast = test system: HS 578T breast
RXF 393 renal = test system: RXF 393 renal
CCRF-CEM leukemia = test system: CCRF-CEM leukemia
MALME-3M melanoma = test system: MALME-3M melanoma
NCI-H23 lung = test system: NCI-H23 lung

Measured: TGI

CC1(C)OCC(/C=C\C(O)CC2(C)OCCO2)CO1 (stereo not drawn)
not listed: RXF 393 renal | CCRF-CEM leukemia | MALME-3M melanoma | NCI-H23 lung
> 100 µM: all other assays above

CCC(CCCC[C@H]1CC[C@@H]2CC(=O)C[C@H]12)OC (stereo partly drawn)
not listed: UO-31 renal
> 100 µM: all other assays above

— PubChem BioAssay (NCI)
